From article PMC6370856, “Peptidyl prolyl cis/trans isomerase activity on the cell surface correlates with extracellular matrix development” (Communications Biology, 2019)

Legend:
Jurkat cells = experiment: PPIase activity on cell surface (PACS), Jurkat cells; type: cell-based; conditions: 1 µL medium with 200 µM inhibitor added to 19 µL
Protocol: (§1) To investigate PACS, we need to distinguish between different families of PPIase. […] PACS must also be distinguished from that in culture medium. Adhesive cells such as fibroblasts (human dermal fibroblasts isolated from neonatal foreskin (HDFn)) or mesenchymal stromal cells (MSCs) were washed by simple pipetting and pooling. Washing of suspension cells such as T cells was performed by centrifugation. […] To minimize the potential damage to cells, one washing step was used in the PACS measurement for suspension cells (Supplementary Fig. 10).
(§2) The assay was performed in a cold room. If there was no additional description, the assays were performed in CO2-independent medium supplemented with 10% (v/v) h.i. FBS (medium-h.i. FBS) and 2mM L-glutamine. […] FBS to a final concentration of 120 µg mL^−1 (two times substrate stock). α-Chymotrypsin was prepared freshly. Fifteen micrograms of α-chymotrypsin was dissolved in 2 mL medium-h.i. FBS, and the pH was adjusted with 10 µL 1 M NaOH.
One or more flasks of cells (5 mL per flask, depending on the maximum culture density of each cell line) were harvested by centrifuging at 1000 rpm for 3 min. To remove PPIases from the supernatant originating from the culture, cells were washed one time with 2 mL CO2-independent medium and were resuspended in 1.6 mL of CO2-independent medium with substrate. The cells were centrifuged again, and then 800 µL of the supernatant was taken. The residual volume containing cells was suspended. Nineteen microliters of the cells or supernatant was pipetted to a non-binding 96-well microplate to measure PPIase activity. Four different conditions were performed. […] The plate was kept for 5 min without agitation. The activity measurements were triggered by adding 20 µL of α-chymotrypsin at time 0 min, followed by 1.5 min agitation, and the reaction was stopped after 2 min with 80 µL 20% acetic acid, followed by 15 rounds of up and down pipetting mixing. […]
For the Jurkat cell number activity measurements, two flasks of cells (10 mL) were harvested, washed, and suspended in 600 µL of CO2-independent medium with substrate. The cells were centrifuged again, and then 300 µL supernatant was taken to measure the activity. The residual volume with cells was suspended and used to measure activity (cell density: 2.4 × 10^7 cells/mL). Four different conditions were performed: 20 µL supernatant or cell with 0 µL substrate, 10 µL supernatant or cell with 10 µL substrate, 5 µL supernatant or cell with 15 µL substrate, and 2.5 µL supernatant or cell with 17.5 µL substrate. […]

[1] = test system: human dermal fibroblasts isolated from neonatal foreskin (HDFn); experiment: PPIase activity on cell surface (PACS), HDFn; type: cell-based; conditions: inhibitor final concentration of 10 µM
Protocol: To investigate PACS, we need to distinguish between different families of PPIase. […] PACS must also be distinguished from that in culture medium. Adhesive cells such as fibroblasts (human dermal fibroblasts isolated from neonatal foreskin (HDFn)) or mesenchymal stromal cells (MSCs) were washed by simple pipetting and pooling. Washing of suspension cells such as T cells was performed by centrifugation. After the first washing step, no change in PPIase activity in supernatant could be detected through the following washing steps. To minimize the potential damage to cells, one washing step was used in the PACS measurement for suspension cells (Supplementary Fig. 10). […] Adding SLF further reduced the isomerase activity in samples both with and without cells due to the FKBP in the fetal bovine serum (FBS)-containing medium. After the treatment of CsA/SLF, these was no difference in the substrate cis/trans isomerization rate in all the samples. Therefore, neither the cells nor the FBS in the culture medium interferes with the protease-coupled PPIase assay (Fig. 4b).
as §2, with “NaOH. Five millimole CsA, SLF, and CsA/SLF mixture were prepared in DMSO.” for “NaOH.”
(§3) The cells (10,000 per well) were cultured in 96-well plates for 24 h. The supernatant was removed by turning the plate upside down. The cells were washed three times for 5 min under gentle shaking using supplemented CO2-independent medium (100 µL/well), and the supernatant was removed as before. The cells were kept in supplemented CO2-independent medium (100 µL/well) for measuring PPIase activity.
(§4) The medium was removed with a pipette. […] The mixture was kept for 5 min without agitation, followed by 1.5 min of agitation (linear shaking by hand with a speed of around 200 rounds/min). Twenty microliters were taken from the supernatant and measured along with the cell fraction (the remaining 20 µL) for PPIase activity. The activity measurements were triggered by adding 20 µL α-chymotrypsin at time 0 min, followed by 1.5 min of agitation, and the reaction was stopped at time 2 min with 80 µL of 20% acetic acid followed by 15 rounds of up and down pipetting mixing. Four independent experiments were performed on the same day.

[2] = test system: human mesenchymal stromal cells (MSCs); experiment: PPIase activity on cell surface (PACS), MSCs; type: cell-based; conditions: MSC, inhibitor final concentration of 10 µM
Protocol: as §1, §2, §3, §4

[3] = test system: PPIase activity in culture medium (FKBP in the FBS-containing medium); experiment: PPIase activity in CO2-independent medium with or without FBS (control); type: biochemical, bovine; conditions: for Supernatant PPIase activity k, Exp. 1 / Supernatant PPIase activity k, Exp. 2 / Supernatant PPIase activity k, Exp. 3 / Supernatant PPIase activity k, Mean: no cells
Protocol: as §1, §2

Supernatant PPIase activity k, Exp. 1 ([3]; Medium with FBS): 0.00201 s⁻¹
Supernatant PPIase activity k, Exp. 2 ([3]; Medium with FBS): 0.00203 s⁻¹
Supernatant PPIase activity k, Exp. 3 ([3]; Medium with FBS): 0.00197 s⁻¹
Supernatant PPIase activity k, Mean ([3]; Medium with FBS): 0.002003 s⁻¹
Supernatant PPIase activity k, Exp. 1 ([3]; Medium without FBS): 0.00194 s⁻¹
Supernatant PPIase activity k, Exp. 2 ([3]; Medium without FBS): 0.00197 s⁻¹
Supernatant PPIase activity k, Exp. 3 ([3]; Medium without FBS): 0.00199 s⁻¹
Supernatant PPIase activity k, Mean ([3]; Medium without FBS): 0.001967 s⁻¹
inhibition of residual PPIase activity in the supernatant ([3]; supernatant / FBS-containing culture medium (Fig. 4b, first right)): completely inhibited
SMILES: CCC(C)(C)C(=O)C(=O)N1CCCC[C@H]1C(=O)O[C@H](CCc1ccc(OC)c(OC)c1)c1cccc(OCC(=O)O)c1 [SLF]
Supernatant PPIase activity k, Exp. 1 (Jurkat cells; supernatant): 0.00208 s⁻¹
Supernatant PPIase activity k, Exp. 2 (Jurkat cells; supernatant): 0.00205 s⁻¹
Supernatant PPIase activity k, Exp. 3 (Jurkat cells; supernatant): 0.00194 s⁻¹
Supernatant PPIase activity k, Exp. 4 (Jurkat cells; supernatant): 0.00211 s⁻¹
Supernatant PPIase activity k, Exp. 5 (Jurkat cells; supernatant): 0.00203 s⁻¹
Supernatant PPIase activity k, Exp. 6 (Jurkat cells; supernatant): 0.00196 s⁻¹
Supernatant PPIase activity k, Mean (Jurkat cells; supernatant): 0.002028 s⁻¹
cell surface PPIase activity k, Cell (1st replicate column) (Jurkat cells; with cells): 0.0033 s⁻¹
cell surface PPIase activity k, Cell (2nd replicate column) (Jurkat cells; with cells): 0.00321 s⁻¹
cell surface PPIase activity k, Cell (3rd replicate column) (Jurkat cells; with cells): 0.00336 s⁻¹
cell surface PPIase activity k, Cell (4th replicate column) (Jurkat cells; with cells): 0.00308 s⁻¹
cell surface PPIase activity k, Cell (5th replicate column) (Jurkat cells; with cells): 0.00293 s⁻¹
cell surface PPIase activity k, Cell (6th replicate column) (Jurkat cells; with cells): 0.00306 s⁻¹
cell surface PPIase activity k, Mean (Jurkat cells; with cells): 0.003176 s⁻¹
Supernatant PPIase activity k, Exp. 1 ([1]; supernatant): 0.00186 s⁻¹
Supernatant PPIase activity k, Exp. 2 ([1]; supernatant): 0.00236 s⁻¹
Supernatant PPIase activity k, Exp. 3 ([1]; supernatant): 0.00238 s⁻¹
Supernatant PPIase activity k, Mean ([1]; supernatant): 0.0022 s⁻¹
cell surface PPIase activity k, Exp. 2 ([1]; with cells): 0.0027 s⁻¹
cell surface PPIase activity k, Exp. 3 ([1]; with cells): 0.00286 s⁻¹
cell surface PPIase activity k, Exp. 4 ([1]; with cells): 0.00333 s⁻¹
cell surface PPIase activity k, Mean ([1]; with cells): 0.002963 s⁻¹
Supernatant PPIase activity k, Exp. 1 ([2]; supernatant): 0.0025 s⁻¹
Supernatant PPIase activity k, Exp. 2 ([2]; supernatant): 0.00238 s⁻¹
Supernatant PPIase activity k, Exp. 3 ([2]; supernatant): 0.00221 s⁻¹
Supernatant PPIase activity k, Exp. 4 ([2]; supernatant): 0.00211 s⁻¹
Supernatant PPIase activity k, Mean ([2]; supernatant): 0.0023 s⁻¹
cell surface PPIase activity k, Exp. 2 ([2]; with cells): 0.0036 s⁻¹
cell surface PPIase activity k, Exp. 3 ([2]; with cells): 0.00293 s⁻¹
cell surface PPIase activity k, Exp. 4 ([2]; with cells): 0.00339 s⁻¹
cell surface PPIase activity k, Mean ([2]; with cells): 0.003307 s⁻¹
